According to patent publication US20240409536A1, “COMPOUNDS AND METHODS FOR MODULATING SPLICING” (REMIX THERAPEUTICS INC., priority 2021, published 2024):

Experiments:
HTT mRNA [1] = assay: Splicing RT-qPCR assay, HTT canonical (CJ) and alternative (AJ) junction mRNA; type: cell-based; details: Homo sapiens, A673 or K562 cells, 24 hours; for IC50: decrease in canonical junction mRNA; for AC50: increase in alternative junction mRNA
Procedure, shortened: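 RT-qPCR read-out: CJ and AJ junction isoforms quantified from cell lysates, normalized to housekeeping GAPDH/GUSB (K562) or PPIA (A673). Cells had 24 h compound exposure, 11-point 3-fold series from 10 uM final, ≤0.25% DMSO.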

K562 cells = assay: Cell Titer Glo 2.0 cell viability assay in K562 cells; details: 72 hours
HTT mRNA [2] = assay: Gene panel canonical junction qPCR assay, HTT CJ mRNA decrease; type: cell-based, human; details: Homo sapiens, canonical junction qPCR, read-out: HTT IC50 (decrease in CJ mRNA levels)
Procedure, shortened: (§1)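 A673 or K562 cells treated with compound; canonical exon-exon junction mRNA quantified by cDNA synthesis and RT-qPCR with junction-spanning primer/probe, normalized to GAPDH, GUSB or PPIA and DMSO (2^(−ΔΔCt)). Percent response from set ΔCt assay windows fitted to 4-parameter logistic; IC50 for CJ decrease.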

Target C mRNA = assay: Gene panel canonical junction qPCR assay, Target C CJ mRNA decrease; type: cell-based; details: Homo sapiens, canonical junction qPCR, read-out: Target C IC50 (decrease in CJ mRNA levels)
Procedure, shortened: as §1

Structure (SMILES)	IC50 (HTT mRNA [1]) [µM]	AC50 (HTT mRNA [1]) [µM]	Viability (K562 cells)	IC50 (HTT mRNA [2]) [µM]	IC50 (Target C mRNA) [µM]
COc1cnc2c(N3CC[C@@H](N(C)C)C3)ccc(C(=O)Nc3cc(F)c4nc(C)cn4c3)c2n1 [Compound 244, 8-[(3R)-3-(dimethylamino)pyrrolidin-1-yl]-N-{8-fluoro-2-methylimidazo[1,2-a]pyridin-6-yl}-3-methoxyquinoxaline-5-carboxamide]	0.1 to 1	0.1 to 1	A (A represents <100 nM)	0.1 to 1	0.1 to 1
Cc1cn2c(C)c(NC(=O)c3ccc(N4C[C@@H](C)N[C@@H](C)C4)c4nccnc34)cc(F)c2n1 [Compound 285]	1 to 10	1 to 10	C (C represents 1000-9999 nM)	1 to 10	1 to 10
C[C@@H]1CN(c2ccc(C(=O)Nc3cc(F)c4ncccc4c3)c3nccnc23)C[C@H](C)N1 [Compound 344]	> 10	> 10	C (C represents 1000-9999 nM)	> 10	> 10
Cc1cn2cc(NC(=O)c3ccc(N4CCNCC4)c4nncnc34)cc(F)c2n1 [Compound 345]	1 to 10	1 to 10	B (B represents 100-1000 nM)	1 to 10	1 to 10
Cc1cn2cc(NC(=O)c3ccc(N4CCN[C@@H](C(C)C)C4)c4nccnc34)cc(F)c2n1 [Compound 250, N-{8-fluoro-2-methylimidazo[1,2-a]pyridin-6-yl}-8-[(3S)-3-isopropylpiperazin-1-yl]quinoxaline-5-carboxamide]	> 10	> 10	B (B represents 100-1000 nM)	> 10	> 10
CN[C@H]1CCN(c2ccc(C(=O)Nc3cc(F)c4nc(C)cn4c3)c3nnccc23)C1 [Compound 239, (S)—N-(8-fluoro-2-methylimidazo[1,2-a]pyridin-6-yl)-5-(3-(methylamino)pyrrolidin-1-yl)cinnoline-8-carboxamide]	1 to 10	1 to 10	B (B represents 100-1000 nM)	1 to 10	1 to 10
Cn1cc2ccc(NC(=O)c3ccc(N4CCNCC4)c4ccnnc34)cc2n1 [Compound 115]	> 10	> 10	D (D represents greater than 10 μM in K562 cells)	> 10	> 10
Cc1cn2cc(NC(=O)c3ccc(N4CCC(N)(CF)CC4)c4nccnc34)cc(F)c2n1 [Compound 356]	1 to 10	> 10	C (C represents 1000-9999 nM)	1 to 10	> 10
COc1nc2c(N3C[C@@H](C)N[C@@H](C)C3)ccc(C(=O)Nc3cc(F)c4nc(C)cn4c3)c2nc1C [Compound 260, 8-((3R,5S)-3,5-dimethylpiperazin-1-yl)-N-(8-fluoro-2-methylimidazo[1,2-a]pyridin-6-yl)-2-methoxy-3-methylquinoxaline-5-carboxamide; 2,2,2-trifluoroacetate]	0.1 to 1	1 to 10	C (C represents 1000-9999 nM)	0.1 to 1	1 to 10
Cc1cn2cc(NC(=O)c3ccc(N4C[C@@H](C)N[C@@H](C)C4)c4cccnc34)cc(F)c2n1 [Compound 340]	1 to 10	1 to 10	B (B represents 100-1000 nM)	1 to 10	1 to 10
Cc1cn2cc(NC(=O)c3ccc(N4CCN[C@@H](C5CC5)C4)c4nccnc34)cc(F)c2n1 [Compound 252, 8-[(3S)-3-cyclopropylpiperazin-1-yl]-N-{8-fluoro-2-methylimidazo[1,2-a]pyridin-6-yl}quinoxaline-5-carboxamide]	> 10	> 10	B (B represents 100-1000 nM)	> 10	> 10
Cc1cn2cc(NC(=O)c3ccc(N4C[C@@H](C)N[C@@H](C)C4)c4nccnc34)nc2c(C)n1 [Compound 359]	> 10	> 10	B (B represents 100-1000 nM)	> 10	> 10
COc1ccc2c(N3C[C@@H](C)N[C@@H](C)C3)ccc(C(=O)Nc3cc(F)c4nc(C)cn4c3)c2n1 [Compound 268, 5-[(3R,5S)-3,5-dimethylpiperazin-1-yl]-N-{8-fluoro-2-methylimidazo[1,2-a]pyridin-6-yl}-2-methoxyquinoline-8-carboxamide]	1 to 10	1 to 10	B (B represents 100-1000 nM)	1 to 10	1 to 10
Cc1ccc2cc(NC(=O)c3ccc(N4C[C@@H](C)N[C@@H](C)C4)c4nccnc34)cc(F)c2n1 [Compound 353]	> 10	> 10	C (C represents 1000-9999 nM)	> 10	> 10
Cn1cc2c(F)cc(NC(=O)c3ccc(N4CCNCC4)c4ccnnc34)cc2n1 [Compound 116]	> 10	> 10	C (C represents 1000-9999 nM)	> 10	> 10
Cc1cn2cc(NC(=O)c3ccc(N4CCN(C)C5(CC5)C4)c4nccnc34)cc(F)c2n1 [Compound 364]	0.1 to 1	1 to 10	B (B represents 100-1000 nM)	0.1 to 1	1 to 10
Cc1cn2cc(NC(=O)c3ccc(N4CCN[C@H](C5CC5)C4)c4nccnc34)cc(F)c2n1 [Compound 253, 8-[(3R)-3-cyclopropylpiperazin-1-yl]-N-{8-fluoro-2-methylimidazo[1,2-a]pyridin-6-yl}quinoxaline-5-carboxamide]	1 to 10	1 to 10	A (A represents <100 nM)	1 to 10	> 10
Cc1cn2cc(NC(=O)c3ccc(N4CCN[C@H](CF)C4)c4nccnc34)cc(F)c2n1 [Compound 366]	1 to 10	1 to 10	C (C represents 1000-9999 nM)	1 to 10	1 to 10
Cc1cn2cc(NC(=O)c3ccc(N4CCC(NC5CC5)CC4)c4ccnnc34)cc(F)c2n1 [Compound 259, 5-[4-(cyclopropylamino)piperidin-1-yl]-N-{8-fluoro-2-methylimidazo[1,2-a]pyridin-6-yl} cinnoline-8-carboxamide]	0.1 to 1	0.1 to 1	A (A represents <100 nM)	0.1 to 1	1 to 10
COc1nc(NC(=O)c2ccc(N3C[C@@H](C)N[C@@H](C)C3)c3nccnc23)cc2oc(C)nc12 [Compound 298]	> 10	> 10	C (C represents 1000-9999 nM)	> 10	> 10
C[C@@H]1CN(c2ccc(C(=O)Nc3cc(F)c4cnccc4c3)c3nccnc23)C[C@H](C)N1 [Compound 343]	1 to 10	1 to 10	C (C represents 1000-9999 nM)	1 to 10	1 to 10
Cc1cn2cc(NC(=O)c3c(F)cc(N4C[C@@H](C)N[C@@H](C)C4)c4nccnc34)cc(F)c2n1 [Compound 261, cis-8-[(3R,5S)-3,5-dimethylpiperazin-1-yl]-6-fluoro-N-{8-fluoro-2-methylimidazo[1,2-a]pyridin-6-yl}quinoxaline-5-carboxamide]	1 to 10	1 to 10	B (B represents 100-1000 nM)	1 to 10	1 to 10
Cc1cn2cc(NC(=O)c3ccc([C@H]4CCNC4)c4nccnc34)cc(F)c2n1 [Compound 246]	1 to 10	1 to 10	B (B represents 100-1000 nM)	1 to 10	> 10
Cc1cn2cc(NC(=O)c3ccc(N4CCNC(C)(CO)C4)c4nccnc34)cc(F)c2n1 (centres unmarked) [Compound 368]	1 to 10	1 to 10	B (B represents 100-1000 nM)	1 to 10	1 to 10
Cc1cn2cc(NC(=O)c3ccc(NC4CCNC4)c4nccnc34)cc(F)c2n1 (centres unmarked) [Compound 316]	> 10	1 to 10	B (B represents 100-1000 nM)	> 10	> 10
Cc1cn2cc(NC(=O)c3ccc(N4CCN[C@H](CO)C4)c4nccnc34)cc(F)c2n1 [Compound 362]	1 to 10	1 to 10	B (B represents 100-1000 nM)	1 to 10	1 to 10
CNC1CCN(c2ccc(C(=O)Nc3cc(F)c4nc(C)cn4c3)c3nc(OCCOC)ccc23)C1 (centres unmarked) [Compound 234]	1 to 10	1 to 10	B (B represents 100-1000 nM)	1 to 10	1 to 10
Cc1c(O)c(NC(=O)c2ccc(N3C[C@@H](C)N[C@@H](C)C3)c3nccnc23)cc2cn(C)nc12 [Compound 310]	> 10	> 10	C (C represents 1000-9999 nM)	> 10	> 10
